Here are results for one compound from ChEMBL document CHEMBL5726691, “Carboxylic acid compound, method for preparation thereof, and use thereof” (2018).

The target in this assay is T1, Solute carrier family 22 member 12 (Homo sapiens, UniProt Q96S37).
T1 sequence (Q96S37 whole entry): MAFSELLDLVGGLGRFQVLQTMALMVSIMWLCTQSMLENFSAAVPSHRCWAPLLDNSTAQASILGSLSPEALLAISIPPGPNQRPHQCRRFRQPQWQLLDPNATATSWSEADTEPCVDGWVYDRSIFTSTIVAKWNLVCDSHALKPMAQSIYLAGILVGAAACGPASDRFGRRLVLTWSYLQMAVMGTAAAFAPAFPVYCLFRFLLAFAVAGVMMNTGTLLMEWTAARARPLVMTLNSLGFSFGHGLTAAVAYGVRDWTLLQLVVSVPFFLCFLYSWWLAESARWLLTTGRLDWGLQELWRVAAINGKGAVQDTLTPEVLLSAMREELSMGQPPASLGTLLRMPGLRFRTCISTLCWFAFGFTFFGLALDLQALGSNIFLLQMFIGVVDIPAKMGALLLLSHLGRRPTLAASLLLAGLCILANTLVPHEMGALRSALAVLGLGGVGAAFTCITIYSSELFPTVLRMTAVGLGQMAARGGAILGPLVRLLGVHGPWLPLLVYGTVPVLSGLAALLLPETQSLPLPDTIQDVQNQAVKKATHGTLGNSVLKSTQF
The assay can be described thus: 150 microliter of cell lysate (100 mM of NaOH) was added in each well. Cell plate was placed on a vibrating plate and vibrated for 10 min at a speed of 600 rpm such that the cells were completely lysed. The cell plate was put in a centrifuge and spun for 5 min at a speed of 1000 rpm, then 45 microliter of supernatant was sucked out from each well and transferred to 96-well plate (Isoplate-96 Microplate from PerkinElmer).

Usually IC50 stands for the concentration that gives 50% inhibition. The low end stands for inhibition by little substance, the high end for a need for much substance.

`N#Cc1ccc(-c2ccccc2S(=O)(=O)CC2(CC(=O)O)CC2)cc1` came in with an IC50 above 1 µM.
